According to patent US20050239873A1 (priority 1999, published 2005):

Key:
[1] = test system: mitochondria from TABX2S cells; assay: Swelling of isolated mitochondria (absorbance at 540 nm); parameters: species or system murine; conditions: 2 μg/ml
Description: Mitochondrial PT is caused by opening of a large conductance channel in the inner mitochondrial membrane. Opening of a large conductance channel allows free distribution of solutes of less than 1,500 Da and results in dissipation of the proton gradient and osmotic swelling of mitochondria due to the higher solute concentration in the matrix. In isolated mitochondria, the colloid osmotic swelling associated with PT pore opening can be followed by measuring the optical density change at 540 nm (Kantrow et al., Biochem. Biophy. Res. Comm. 232:669-671, 1997).
Briefly, mitochondria were isolated from TABX2S cultured cells by a modification of the procedure of Maltese et al. (J. Biol. Chem. 260:11524-11529, 1985). Typically, 0.5 to 1×10^8 cells were harvested and washed once with homogenization buffer (250 mM sucrose, 10 mM Tris-HCl, 1 mM EDTA and 1 mg/ml BSA, (pH 7.4)). The cell suspension was exposed to nitrogen at 250 psi for 30 minutes in a “cell disruption bomb” (Parr, Moline, Ill.) or homogenized in a Dounce homogenizer with a loose-fitting pestle until >90% of cells were broken. The homogenate was centrifuged at 800×g for 10 minutes. The supernatant was removed and centrifuged at 10,000×g for 10 minutes at 4° C. The pellet was resuspended and again centrifuged at 10,000×g for 10 minutes. […]

AML-12.Bcl-xL cells = assay: Sensitivity of non-tumorigenic liver cells to antimycin A; format: cell-based, mouse; conditions: vs AML-12 control transfectants
Description: The effects of BCl-xL over-expression on non-tumorigenic cells was also examined. […] Briefly, AML-12 cells were transfected as described above with pSFFV.Bcl-xL(sense) and pSFFV.neo. AML-12-pSFFV. Bcl-xL(sense) cells expressed approximately 3 to 4 fold higher BCl-xL protein levels than did AML-12 cells transfected with the control plasmid, pSFFV.neo, when assayed by Western blot analysis.

[2] = Stability in solution at pH 7.4 (no S9); format: physicochemical; conditions: pH 7.4, absence of S9 proteins
[3] = Binding to plasma proteins (ultrafiltration); format: in vitro ADME, mouse; conditions: mouse, plasma, presence of NaF+EDTA, read-out: Protein binding, Mouse
Experimental: Solutions of 2-OMe antimycin A3 were diluted with plasma (dog or human) containing NaF+EDTA to final concentrations of 1.0 or 0.2 μg/ml. Controls were diluted with water to the same final concentrations. These preparations were incubated at 37° C. for 20 min, at which time portions were taken and placed in the sample reservoirs of Amicon Centrifree® ultrafiltration systems (Millipore Co., Bedford, Mass.). At 37° C., the filter systems were centrifuged until the reservoirs were dry. From each filtrate, portions were taken for analysis by HPLC. The amounts present were designated as “free drug” (F). The concentrations of the unfiltered solutions were also determined by triplicate analyses. This amount represented the “total drug” concentration (T). The percentage of 2-OMe antimycin A3 bound to plasma proteins was calculated by the following formula: % bound=((T−F)/T)×100

cellular O2 consumption = assay: Cellular O2 consumption; format: cell-based; conditions: compared to antimycin A3
RPMI-8226 cells = assay: Mitochondrial membrane potential (safranin O); format: cell-based, human
Experimental: RPMI-8226 cells (2×10^7) were resuspended in buffer containing 130 mM KCl, 5 mM malate, 5 mM glutamate, 2 mM KPO4, 5 mM HEPES, pH 7.0 with 5 μM safranin O dye, in a stirred cuvette at 28° C. Fluorescence was measured at 495 nm excitation, 586 nm emission on a RF-5301PC spectrofluorophotometer (Shimadzu, Japan). Safranin O fluorescence was quenched following addition of 0.0025% digitonin as the dye accumulates in active mitochondria (Fiskum et al., Methods Enzymol. 322:222-234, 2000). Depolarization of the mitochondrial inner membrane caused a shift of safranin O localization from mitochondria to cytoplasm, evident as increased fluorescence.

antimycin A
mitochondrial swelling [1]: caused mitochondrial swelling
sensitivity to antimycin A (AML-12.Bcl-xL cells): increased sensitivity

CCCC[C@H]1C(=O)OC(C)[C@H](NC(=O)c2cccc(NC=O)c2OC)C(=O)O[C@@H](C)C1OC(=O)CC(C)C (stereo partly drawn) [2-OMeA3, Antimycin A3 methyl ether]
stability in solution [2]: not stable
fraction unbound at 20 min, 1000 ng/ml [3]: < 0.01
effect on cellular O2 consumption (cellular O2 consumption): negligible effect

2-methoxy antimycin A [2-OMeA]
acute changes in mitochondrial membrane potential (RPMI-8226 cells): No acute changes
